Laboratory results: article PMC11219744, “Renal excretion of 1,2-dihydroxynaphthalene (DHN) in firefighting instructors after exposure to polycyclic aromatic hydrocarbons (PAHs) during live fire training” (Scientific Reports, 2024)
Values belong to the compound of their own block, whether it stands above or below them.

Legend:
[1] = Human biomonitoring: urinary excretion of PAH metabolites (GC–MS/MS, creatinine-normalised) in firefighting instructors before and after live fire training
Method: All study participants (n = 6) were male firefighting instructors from Germany. […] Before the start of the study, all subjects declared that they were non-smokers. Tattoo bearers were excluded before the start of the study as tattoo ink can be a potential source of polycyclic aromatic hydrocarbons. The authors declare that this research was conducted in accordance with the relevant regulations, including the Declaration of Helsinki. All subjects gave written informed consent after being informed about the study by the investigator.
Exposure to combustion products took place in several training sessions that simulated live fire conditions by burning a defined number of uncoated chipboards in an overseas container. The container was located in a hall with exhaust air purification. […] In addition, all subjects wore long-sleeved undergarments under their turnout gear. Only laundered clothing and cleaned equipment (e.g. helmets, masks) were used. The donning and doffing of clothing and protective equipment took place only in a smoke-free, well-ventilated area. Immediately after taking off the firefighters' gloves after training, the participants put on nitrile gloves for further undressing. After removing the helmet, flash hood and SCBA face shield, the participants put on particle filtering half masks (FFP3) to remove contaminated turnout jackets and trousers. After a break for rehydration and cool down still wearing their undergarments, the participants went to shower. […] The interval between two consecutive training sessions for each subject was at least six days. […] In this way, each subject was biomonitored at each of the five training sessions. All additional (unscheduled) urinations between the predefined times were also collected in separate containers and pooled afterwards with the next scheduled sample. […] A total of 270 samples were to be collected using this procedure for all participants and five training sessions of each individual. Subjects completed a questionnaire for each sampling period to account for possible pre-exposure or concurrent exposure to PAHs from sources other than the fire simulation unit, such as occupational exposure to combustion products, exposure to tobacco smoke (active/passive) and barbecue activities, and consumption of smoked or charbroiled foods.
In brief, the analytes were extracted by liquid–liquid extraction with n-hexane after enzymatic hydrolysis of the urine samples with ß-glucuronidase/arylsulfatase (isolated from helix pomatia) and derivatised by silylation with N-trimethylsilyl-N-methyl trifluoroacetamide afterwards. […] All standards were obtained from LGC-Standards, Wesel, Germany.
DHN in urine was determined referring to a method described in detail by Klotz et al.[29]. […] External calibration with internal standardisation by an isotopically labelled analogue of the target compound was done by analysis of pool urine samples spiked with the glucuronides of DHN and D6-1,2-dihydroxynaphthalene (internal standard) before enzymatic hydrolysis. Both standards are not commercially available and were obtained as a gift from the Institute of Occupational, Social and Environmental Medicine at the University of Erlangen-Nuremberg (Germany). A detailed description of the synthesis of the compounds is given by[26]. […] Up to now, there is no external quality assessment scheme available for DHN.
Urinary creatinine was analysed in the Institute of Clinical Chemistry and Laboratory Medicine of University Medical Centre of the Johannes Gutenberg University Mainz using a photometrical assay based on the method of[30].

[2] = Time to peak and initial elimination half-life of the urinary biomarkers (first-order model, linear mixed effects); type: in vivo, human
Excerpt: The initial half-life of each biomarker was estimated using statistical methods described previously[6],[32]. In short, we estimated the first-order elimination rate constant λ based on the model in Eq. (1):1 C=C0+B·e^λ·t+∈
Here, C is the creatinine-adjusted concentration in urine after the uptake phase, C0 is the baseline concentration before training, B is the difference from peak to baseline concentration, t is the time since peak concentration, and ϵ is the error term. […] Using package nlme[33] for the statistical environment R[34],[35], the model was fitted as a linear mixed effects model for the log concentration difference to baseline ln(C–C0) as the outcome. The model was fitted simultaneously for all data and included fixed effects for biomarker, time since peak, and their interaction term. It used random slopes for time since peak and random intercepts for […]. Errors were assumed to be autocorrelated according to an AR(1) process.

[3] = set-up: method as in PMID 32464238; conditions: by scheduled sampling time; cited from earlier work
[4] = upper margin of internal exposure typically found in smokers; cited from earlier work
[5] = cited from earlier work
[6] = urinary excretion, time after onset of exposure

- Proportion in the total excretion of the three naphthalene metabolites ([1]; after exposure (after sampling 3, rest of the sampling period), based on median concentrations): lower than 10%
- Increase in concentration from before exposure up to the maximum of excretion, factor ([1]; male, human, in vivo): about 6
- Concentration in urine, IQR ([1]; male, human, in vivo, 0 h): 4.55–9.78 µg/g creatinine
- Concentration in urine, range ([1]; male, human, in vivo, 0 h): 2.07–42.68 µg/g creatinine
- Concentration in urine, IQR ([1]; male, human, in vivo, 1 h): 11.05–18.20 µg/g creatinine
- Concentration in urine, median ([1]; male, human, in vivo, 1 h): 11.96 µg/g creatinine
- Concentration in urine, range ([1]; male, human, in vivo, 1 h): 3.97–58.89 µg/g creatinine
- Concentration in urine, median ([1]; male, human, in vivo, 2 h): 7.42 µg/g creatinine
- Concentration in urine, IQR ([1]; male, human, in vivo, 3 h): 8.14–14.40 µg/g creatinine
- Concentration in urine, median ([1]; male, human, in vivo, 3 h): 10.07 µg/g creatinine
- Concentration in urine, range ([1]; male, human, in vivo, 3 h): 5.62–23.16 µg/g creatinine
- Concentration in urine, IQR ([1]; male, human, in vivo, 6 h): 3.62–7.98 µg/g creatinine
- Concentration in urine, median ([1]; male, human, in vivo, 6 h): 5.12 µg/g creatinine
- Concentration in urine, range ([1]; male, human, in vivo, 6 h): 1.17–12.78 µg/g creatinine
- Concentration in urine, IQR ([1]; male, human, in vivo, 9 h): 2.34–5.27 µg/g creatinine
- Concentration in urine, median ([1]; male, human, in vivo, 9 h): 3.48 µg/g creatinine
- Concentration in urine, range ([1]; male, human, in vivo, 9 h): 1.30–11.32 µg/g creatinine
- Concentration in urine, IQR ([1]; male, human, in vivo, 11 h): 1.76–4.19 µg/g creatinine
- Concentration in urine, median ([1]; male, human, in vivo, 11 h): 3.14 µg/g creatinine
- Concentration in urine, range ([1]; male, human, in vivo, 11 h): 1.08–10.02 µg/g creatinine
- Concentration in urine, IQR ([1]; male, human, in vivo, 18 h): 1.93–4.24 µg/g creatinine
- Concentration in urine, median ([1]; male, human, in vivo, 18 h): 3.26 µg/g creatinine
- Concentration in urine, range ([1]; male, human, in vivo, 18 h): 1.02–14.56 µg/g creatinine
- Median increase in morning urine after exposure (sampling 9) vs. before (sampling 1) ([1]; male, human, in vivo, 18 h): 1.5 fold
- Concentration in urine, IQR ([1]; male, human, in vivo, -0.4 h): 1.13–3.47 µg/g creatinine
- Concentration in urine, median ([1]; male, human, in vivo, -0.4 h): 1.94 µg/g creatinine
- Concentration in urine, range ([1]; male, human, in vivo, -0.4 h): 0.21–10.94 µg/g creatinine
- Concentration in urine, IQR ([1]; male, human, in vivo, -4.2 h): 1.18–2.88 µg/g creatinine
- Concentration in urine, median ([1]; male, human, in vivo, -4.2 h): 2.00 µg/g creatinine
- Concentration in urine, range ([1]; male, human, in vivo, -4.2 h): 0.30–10.02 µg/g creatinine
- Median increase from baseline (sample 2) to peak excretion ([1]; peak: sample 5 for 1-PYR, sample 4 otherwise): 6.6 fold
- half-life ([2]; male, human, initial elimination half-life after peak excretion, urine, read-out: Estimated half-life, mean (converted)): 5.2 h
- Time to peak, median [2, 6]: 3.3 h
- Time to peak, range [2, 6]: 2.2 to 11.2 h
Structure (SMILES): Oc1ccc2ccccc2c1 [2-NAP, 2-hydroxynaphthalene]
- Time of peak excretion after the end of the training session [3]: 1 h
- 95th percentile of urinary concentration in smokers [4]: 29.0 µg/g crea.

Structure (SMILES): c1ccc2ccccc2c1 [NAP, naphthalene]
- IARC carcinogenicity category [5]: group 2B (possibly carcinogenic to humans)
